Test results: the NIST ThermoML archive (doi:10.1021/acs.jced.9b00846)

Settings: Liquid, Vibrating tube method

CCC(C)CC [3-methylpentane]
Settings | mass density [kg/m3]
283.15 K, 96 kPa | 673.7
283.15 K, 4984 kPa | 678.4
283.15 K, 9983 kPa | 682.9
283.15 K, 14976 kPa | 687.2
283.15 K, 20022 kPa | 691.2
283.15 K, 25054 kPa | 695
283.15 K, 29951 kPa | 698.6
283.15 K, 35044 kPa | 702.1
283.15 K, 40019 kPa | 705.4
283.15 K, 45032 kPa | 708.6
283.15 K, 50012 kPa | 711.7
283.15 K, 54940 kPa | 714.6
283.15 K, 59937 kPa | 717.5
283.15 K, 64969 kPa | 720.3
288.15 K, 123 kPa | 669.3
288.15 K, 4981 kPa | 674.1
288.15 K, 10014 kPa | 678.9
288.15 K, 14991 kPa | 683.2
288.15 K, 19942 kPa | 687.3
288.15 K, 25033 kPa | 691.3
288.15 K, 29989 kPa | 695
288.15 K, 35037 kPa | 698.6
288.15 K, 39987 kPa | 701.9
288.15 K, 45029 kPa | 705.2
288.15 K, 50061 kPa | 708.4
288.15 K, 54941 kPa | 711.3
288.15 K, 59951 kPa | 714.3
288.15 K, 65035 kPa | 717.1
293.15 K, 98 kPa | 664.7
293.15 K, 4913 kPa | 669.7
293.15 K, 9979 kPa | 674.6
293.15 K, 14916 kPa | 679.1
293.15 K, 19985 kPa | 683.5
293.15 K, 24964 kPa | 687.5
293.15 K, 30011 kPa | 691.3
293.15 K, 34951 kPa | 694.9
293.15 K, 40003 kPa | 698.4
293.15 K, 45015 kPa | 701.8
293.15 K, 49957 kPa | 705
293.15 K, 54949 kPa | 708.1
293.15 K, 60008 kPa | 711.1
293.15 K, 65001 kPa | 714
298.15 K, 123 kPa | 660.1
298.15 K, 4936 kPa | 665.3
298.15 K, 9999 kPa | 670.4
298.15 K, 15031 kPa | 675.1
298.15 K, 20036 kPa | 679.5
298.15 K, 25016 kPa | 683.7
298.15 K, 29992 kPa | 687.6
298.15 K, 34973 kPa | 691.3
298.15 K, 40043 kPa | 694.9
298.15 K, 45008 kPa | 698.3
298.15 K, 49987 kPa | 701.6
298.15 K, 54938 kPa | 704.8
298.15 K, 59982 kPa | 707.8
298.15 K, 65001 kPa | 710.8
303.15 K, 106 kPa | 655.4
303.15 K, 4970 kPa | 660.9
303.15 K, 9996 kPa | 666.1
303.15 K, 15043 kPa | 671.1
303.15 K, 20006 kPa | 675.6
303.15 K, 25024 kPa | 679.9
303.15 K, 29956 kPa | 683.9
303.15 K, 34990 kPa | 687.7
303.15 K, 39963 kPa | 691.4
303.15 K, 44991 kPa | 694.9
303.15 K, 49940 kPa | 698.2
303.15 K, 54932 kPa | 701.5
303.15 K, 59961 kPa | 704.6
303.15 K, 65012 kPa | 707.7
308.15 K, 109 kPa | 650.6
308.15 K, 4967 kPa | 656.3
308.15 K, 10001 kPa | 661.8
308.15 K, 14988 kPa | 666.8
308.15 K, 19945 kPa | 671.5
308.15 K, 25037 kPa | 676
308.15 K, 29968 kPa | 680.1
308.15 K, 35020 kPa | 684
308.15 K, 39963 kPa | 687.8
308.15 K, 44985 kPa | 691.4
308.15 K, 49992 kPa | 694.8
308.15 K, 54921 kPa | 698.1
308.15 K, 60008 kPa | 701.4
308.15 K, 64999 kPa | 704.4
313.15 K, 117 kPa | 645.9
313.15 K, 4981 kPa | 651.9
313.15 K, 9993 kPa | 657.5
313.15 K, 15145 kPa | 662.9
313.15 K, 20027 kPa | 667.6
313.15 K, 25088 kPa | 672.2
313.15 K, 30012 kPa | 676.4
313.15 K, 35003 kPa | 680.4
313.15 K, 40042 kPa | 684.3
313.15 K, 45054 kPa | 688
313.15 K, 49996 kPa | 691.5
313.15 K, 54926 kPa | 694.8
313.15 K, 60053 kPa | 698.2
313.15 K, 65063 kPa | 701.3
318.15 K, 107 kPa | 641.1
318.15 K, 4955 kPa | 647.4
318.15 K, 9991 kPa | 653.3
318.15 K, 15039 kPa | 658.8
318.15 K, 20021 kPa | 663.7
318.15 K, 25060 kPa | 668.4
318.15 K, 29991 kPa | 672.8
318.15 K, 34997 kPa | 676.9
318.15 K, 40044 kPa | 680.9
318.15 K, 44936 kPa | 684.6
318.15 K, 49998 kPa | 688.3
318.15 K, 55010 kPa | 691.7
318.15 K, 59996 kPa | 695.1
318.15 K, 65008 kPa | 698.3
323.15 K, 106 kPa | 636.3
323.15 K, 4980 kPa | 642.9
323.15 K, 9966 kPa | 649
323.15 K, 15009 kPa | 654.6
323.15 K, 20016 kPa | 659.8
323.15 K, 24987 kPa | 664.6
323.15 K, 30019 kPa | 669.1
323.15 K, 34996 kPa | 673.3
323.15 K, 40041 kPa | 677.4
323.15 K, 44988 kPa | 681.2
323.15 K, 49949 kPa | 684.9
323.15 K, 55004 kPa | 688.5
323.15 K, 59997 kPa | 691.8
323.15 K, 64995 kPa | 695.1
328.15 K, 4974 kPa | 638.3
328.15 K, 9983 kPa | 644.6
328.15 K, 14977 kPa | 650.4
328.15 K, 20010 kPa | 655.8
328.15 K, 25021 kPa | 660.8
328.15 K, 29956 kPa | 665.4
328.15 K, 34961 kPa | 669.7
328.15 K, 40039 kPa | 673.9
328.15 K, 45005 kPa | 677.9
328.15 K, 50036 kPa | 681.7
328.15 K, 54981 kPa | 685.2
328.15 K, 60023 kPa | 688.7
328.15 K, 65018 kPa | 692
333.15 K, 4969 kPa | 633.7
333.15 K, 9932 kPa | 640.2
333.15 K, 15031 kPa | 646.3
333.15 K, 19959 kPa | 651.8
333.15 K, 25022 kPa | 657
333.15 K, 29983 kPa | 661.7
333.15 K, 34948 kPa | 666.1
333.15 K, 39982 kPa | 670.4
333.15 K, 45015 kPa | 674.5
333.15 K, 49968 kPa | 678.3
333.15 K, 54981 kPa | 682
333.15 K, 59935 kPa | 685.5
333.15 K, 65077 kPa | 689
338.15 K, 5021 kPa | 629
338.15 K, 10019 kPa | 635.9
338.15 K, 15009 kPa | 642.1
338.15 K, 20030 kPa | 647.8
338.15 K, 25053 kPa | 653.1
338.15 K, 29999 kPa | 658
338.15 K, 34951 kPa | 662.6
338.15 K, 39974 kPa | 667
338.15 K, 45053 kPa | 671.2
338.15 K, 49966 kPa | 675.1
338.15 K, 54970 kPa | 678.8
338.15 K, 59984 kPa | 682.5
338.15 K, 65015 kPa | 685.9
343.15 K, 5000 kPa | 624.2
343.15 K, 10002 kPa | 631.4
343.15 K, 15025 kPa | 637.8
343.15 K, 20016 kPa | 643.7
343.15 K, 24973 kPa | 649.1
343.15 K, 29947 kPa | 654.2
343.15 K, 34977 kPa | 658.9
343.15 K, 39962 kPa | 663.4
343.15 K, 44924 kPa | 667.6
343.15 K, 50034 kPa | 671.8
343.15 K, 54984 kPa | 675.6
343.15 K, 59973 kPa | 679.3
343.15 K, 65018 kPa | 682.9
348.15 K, 4999 kPa | 619.4
348.15 K, 10005 kPa | 626.9
348.15 K, 15001 kPa | 633.6
348.15 K, 19997 kPa | 639.7
348.15 K, 24983 kPa | 645.3
348.15 K, 30044 kPa | 650.6
348.15 K, 34962 kPa | 655.3
348.15 K, 40008 kPa | 660
348.15 K, 44956 kPa | 664.3
348.15 K, 50006 kPa | 668.4
348.15 K, 54987 kPa | 672.4
348.15 K, 59977 kPa | 676.1
348.15 K, 65005 kPa | 679.8
353.15 K, 4969 kPa | 614.4
353.15 K, 9927 kPa | 622.1
353.15 K, 14990 kPa | 629.2
353.15 K, 20018 kPa | 635.5
353.15 K, 25032 kPa | 641.3
353.15 K, 29979 kPa | 646.6
353.15 K, 34952 kPa | 651.6
353.15 K, 39962 kPa | 656.4
353.15 K, 44947 kPa | 660.8
353.15 K, 49917 kPa | 665
353.15 K, 55013 kPa | 669.1
353.15 K, 59927 kPa | 672.9
353.15 K, 65026 kPa | 676.6
358.15 K, 4945 kPa | 609.3
358.15 K, 9952 kPa | 617.5
358.15 K, 15000 kPa | 624.7
358.15 K, 20004 kPa | 631.3
358.15 K, 25020 kPa | 637.3
358.15 K, 29990 kPa | 642.7
358.15 K, 34993 kPa | 647.8
358.15 K, 40000 kPa | 652.7
358.15 K, 44971 kPa | 657.2
358.15 K, 49932 kPa | 661.5
358.15 K, 54965 kPa | 665.6
358.15 K, 59980 kPa | 669.6
358.15 K, 65056 kPa | 673.4
363.15 K, 5004 kPa | 604.2
363.15 K, 9965 kPa | 612.8
363.15 K, 15052 kPa | 620.5
363.15 K, 19925 kPa | 627.1
363.15 K, 25013 kPa | 633.3
363.15 K, 29929 kPa | 638.9
363.15 K, 35008 kPa | 644.2
363.15 K, 39979 kPa | 649.1
363.15 K, 45062 kPa | 653.9
363.15 K, 50011 kPa | 658.2
363.15 K, 54995 kPa | 662.4
363.15 K, 60039 kPa | 666.4
363.15 K, 65041 kPa | 670.2
